Values quoted from earlier work as cited in US20110097427A1, “Molecular Targets and Dietary Modulators of Exercise-Induced Muscle Damage” (priority 2009, published 2011).

Details: Risérus et al., 2008, Diabetes 57: 332-339

In the case of `Cc1cc(SCc2sc(-c3ccc(C(F)(F)F)cc3)nc2C)ccc1OCC(=O)O` [GW501516], the urinary isoprostanes is listed as “reduced”.
